Experimental data published in patent publication US5976781A, “Determining plasmodium in blood by sphingomyelin synthase activity” (The Board of Trustees of the Leland Stanford Junior …, priority 1995, dated 1999).

Tests used:
P. falciparum strain FCB = assay: Inhibition of intraerythrocytic growth in culture (Giemsa staining after 24 h); type: cell-based, Plasmodium falciparum; conditions: 5 μM compound added to 0-12 h rings
From the text: (§1) P. falciparum strain FCB was used for all experiments and cultured in vitro in according to a modification of the method of Trager and Jensen left off. Trager, W. and Jensen, J. B. (1976) Human malaria in continuous culture., Science (Wash. D.C.) 193: 673-675 Haldar, K., Ferguson, M. A. J. and Cross, G. A. M. (1985) Acylation of a Plasmodium falciparum merozoite surface antigen via sn-1, 2-diacyl glycerol. J. Biol. Chem. 260; 4969-4974 The culture medium contained RPMI 1640 supplemented with 25 Mm hepes, Ph 7.4/[…]/92 μM hypoxanthine/0.18% sodium bicarbonate/25 μM gentamicin and 10% AB^+ human sera. The parasites were grown in A^+ erythrocytes at 2.5-5% hematocrit. Parasite cultures were synchronized by separation of the early and late stages on a Percoll gradient. The subsequent reincubation of these stages in culture were used to obtain cells 12-24h in the life cycle. Inhibition of sphingomyelin biosynthetic activity using 5 μM of the various compounds was carried out as described in Example 1. 5 μM of the various compounds were added to 0-12 h rings in the culture medium and cells were examined by Giemsa staining after 24 h.

[1] = system: P. falciparum sphingomyelin synthase; assay: Inhibition of plasmodial sphingomyelin biosynthesis in intact infected erythrocytes (C6-NBD-ceramide to C6-NBD-sphingomyelin); type: cell-based, Plasmodium falciparum; conditions: for effect on sphingomyelin synthase enzyme activity: 5 μM compound (Example 3); for [%] inhibition of sphingomyelin biosynthetic activity: 5 μM compound
Experimental: 1×10^8 infected cells 24 h after invasion were washed serum-free in RPMI 1640 and preincubated for thirty min at 37° C. in 1 ml of RPMI 1640 containing 0-5 μM or 0-500 μM of PPMP. (C6-NBD-ceramide (N-[7-(4-nitrobenzo-2-oxa-1,3-diazide)]-6-aminocaproyl-D-erythro-sphingosine) was added to each sample at a final concentration of 5 μM, the samples further incubated for 30 min at 37° C. and cellular lipids extracted. C6-NBD-sphingomyelin was resolved by TLC and quantitated by fluorescence spectrophotometry as described previously. Bligh, E. G. and Dyer, W. Y. (1959) A rapid method for total lipid extraction and purification., Can. J. Biochem. Physiol. 37: 911-917. Haldar, K., Uyetake, L., Ahori, N., Elmendorf, H. G. and Lu, W-1. (1991) The accumulation and metabolism of a fluorescent ceramide derivative in Plasmodium falciparum-infected erythrocytes., Mo. Biochem. Parasitol. 49: 143-156. Elmendorf, H. G. and Haldar, K. (1994) Plasmodium falciparum exports the Golgi marker sphingomyelin synthase into a tubovesicular network in the cytoplasm of mature erythrocytes., J. Cell Biol. 124: 449-462. Each value obtained represented the mean of triplicate determinations from five experiments. The arrow bars indicate the standard deviations. The results are depicted in FIG. 1.
as §1

protein synthesis = assay: Effect on protein synthesis; type: cell-based
DNA synthesis = assay: Effect on DNA synthesis; type: cell-based
P. falciparum schizonts = assay: Schizont maturation, merozoite invasion and ring viability in the presence of drug; type: cell-based, Plasmodium falciparum; conditions: for fate of schizonts greater than 40 h in the cycle: in the presence of 5 μM drug
P. falciparum = assay: Intraerythrocytic development in long term culture, parasitemia over consecutive cycles; type: cell-based, Plasmodium falciparum
Experimental: Synchronized cultures 12 h after invasion were subjected to different concentrations of PPMP. Parasitemias of drug-treated cultures were determined at various time points during two intraerythrocytic cycles and compared to cells grown in the absence of drug.
The effect of the single lipid analogs to inhibit parasite development in long term culture in consecutive cycles of the parasite growth were investigated. The studies were initiated with synchronized, young rings (0-12 h) at 10% parasitemia. In order to ensure healthy growth of the malaria parasite in vitro, the parasitemias of the cultures are not allowed to exceed 10%. Yet under normal conditions a 3-6 fold increase in parasitemias is detected with each round of invasion: thus for each new cycle, the cultures were diluted 4-fold into fresh erythrocytes in the absence or presence of the drug. […] The lowest effective, killing concentration of PDMP over three cycles of growth is 1.0 μM.

[2] = system: tubovesicular membrane reticulum (TVM) of P. falciparum-infected erythrocytes; assay: Tubovesicular membrane (TVM) morphology by confocal microscopy with C5-DMB-ceramide; type: cell-based, Plasmodium falciparum; conditions: 5 μM PPMP; C5 DMB-ceramide staining; 240 optical sections, 20 cells
Experimental: Schizont-stage parasites isolated over Percoll were allowed to invade in the presence of RPMI 1640 containing 10% human serum or in the presence of RPMI 1640 containing 10% human serum and 5 μM PPMP. 1×10^8 infected erythrocytes of the appropriate stage were incubated in 1 ml of RPMI 1640 supplemented with 2 mg/ml defatted BSA and 20 μM C5 -DMB-ceramide. Cells were washed and fixed as described in Example 5. Sequential micrographs were taken on a custom made laser confocal microscope at 400 nm intervals along the Z axis. Raw data were processed as described previously.

[3] = system: P. falciparum sphingomyelin synthase; assay: Inhibition of sphingomyelin biosynthesis in hypotonically lysed infected erythrocytes and fractions; type: biochemical, Plasmodium falciparum
Experimental: Cells were washed serum-free in PBS and intact cells were incubated in PBS. Cells were lysed in 10 volumes of hypotonic buffer. Pellets and supernatants were separated by centrifugation at 10^4 ×G for 10 min at 4° C. Inhibition of sphingomyelin biosynthetic activity was carried out as described in Example 1. Glutamate dehydrogenase, a parasite cytosolic activity, was assayed using 10 μM alpha-ketoglutarate and 0.1 μM NADPH for 1 h at 37° C. by measuring the absorption at 340 nm in a spectrophotometer. The following table indicates the results

**Q.** With CCCCCCCCCCCCCCC[C@H](O)[C@@H](N)CO (racemic) [dl-dihydrosphingosine] as the compound, how does the “[%] inhibition of growth” value (P. falciparum strain FCB) read?
**A.** The value was 8%.

**Q.** What about the “effect on sphingomyelin synthase enzyme activity” value [1] of the same compound?
**A.** The value was “no effect”.

**Q.** What about the “[%] inhibition of sphingomyelin biosynthetic activity” value ([1]; infected erythrocytes) of the same compound?
**A.** Its value is 4%.

**Q.** Which results are given for CCCCCCCCCC(=O)N[C@H](CN1CCOCC1)[C@H](O)c1ccccc1 (relative stereo) [PDMP, dl-threo-1-phenyl-2-decanoylamino-3-morpholino-1-propanol]?
**A.** inhibition of protein synthesis (protein synthesis): not inhibitory; inhibition of DNA synthesis (DNA synthesis): not inhibitory; [%] inhibition of sphingomyelin biosynthetic activity ([1]; infected erythrocytes): 31%; fate of schizonts greater than 40 h in the cycle (P. falciparum schizonts): mature and rupture

**Q.** What does the source list for CCCCCCCCCCCCCCCC(=O)N[C@H](CN1CCOCC1)[C@H](O)c1ccccc1 (relative stereo) [PPMP, dl-threo-1-phenyl-2-palmitoylamino-3-morpholino-1-propanol]?
**A.** effect on development of trophozoite stage parasites (P. falciparum): blocks; relative efficacy in long term growth inhibition (P. falciparum): more effective than PDMP; effect on rings in their first cycle growth (P. falciparum; 5 μM drug): completely inhibits; development through the first cycle (P. falciparum; concentrations as low as 0.05 μM): do not stop development through the first cycle; [%] inhibition of sphingomyelin biosynthetic activity ([1]; infected erythrocytes): 36%; total cellular sphingomyelin synthase activity inhibited ([1]; 500 μM PPMP, infected erythrocytes): 80-90%; change of sphingomyelin synthase activity ([1]; 0.05-0.5 μM PPMP, infected erythrocytes): initial, rapid decrease; average inhibition of sphingomyelin synthase activity ([1]; 1-5 μM PPMP, infected erythrocytes): 35%; concentration at which the sensitive pool of sphingomyelin synthase activity is completely inhibited ([1]; infected erythrocytes): 1 to 5 µM; inhibition of sphingomyelin biosynthesis at 5 μM PPMP [%] ([1]; intact cells, 5 μM PPMP): 35%; TVM morphology of rings formed in the presence of drug [2]: markedly devoid of tubular connections; inhibition of sphingomyelin biosynthesis at 5 μM PPMP [%] ([3]; hypotonic lysates): 33%; inhibition of sphingomyelin biosynthesis at 5 μM PPMP [%] ([3]; pellet of lysate (10^4 xG)): 30%; inhibition of sphingomyelin biosynthesis at 5 μM PPMP [%] ([3]; supernatant of lysate (10^4 xG)): 3%; effect on schizont maturation or merozoite invasion into erythrocytes (P. falciparum schizonts; 5 μM PPMP): not to block; fate of schizonts greater than 40 h in the cycle (P. falciparum schizonts): mature and rupture; development of rings after being washed free of the drug (P. falciparum schizonts; rings formed in 5 μM PPMP): developed normally

**Q.** What does the source list for CCCCCCCCCC(=O)N[C@@H](CN1CCOCC1)[C@H](O)c1ccccc1 (relative stereo) [dl-erythro-PDMP]?
**A.** effect on sphingomyelin synthase enzyme activity [1]: no effect; [%] inhibition of sphingomyelin biosynthetic activity ([1]; infected erythrocytes): 3%

**Q.** CCN(CC)CCO[C@H]1CC[C@@]2(C)C(=CC[C@@H]3[C@@H]2CC[C@]2(C)C(=O)CC[C@@H]32)C1 [U 18666 A] was tested. Which “effect on sphingomyelin synthase enzyme activity” value [1] did it give?
**A.** The value was “no effect”.

**Q.** What about the “[%] inhibition of sphingomyelin biosynthetic activity” value ([1]; infected erythrocytes) of the same compound?
**A.** Its value is 0%.

**Q.** With CN(C)CCCN1c2ccccc2CCc2ccccc21 [imipramine] as the compound, how does the “effect on sphingomyelin synthase enzyme activity” value [1] read?
**A.** The value was “no effect”.

**Q.** What about the “[%] inhibition of sphingomyelin biosynthetic activity” value ([1]; infected erythrocytes) of the same compound?
**A.** The value was 0%.

**Q.** With CCCCCCCCCCCCC/C=C/[C@@H](O)[C@@H](N)CO [sphingosine] as the compound, how does the “effect on sphingomyelin synthase enzyme activity” value [1] read?
**A.** The value was “no effect”.

**Q.** And the “[%] inhibition of sphingomyelin biosynthetic activity” value ([1]; infected erythrocytes)?
**A.** Its value is 0%.

**Q.** Which “effect on sphingomyelin synthase enzyme activity” value [1] does the source give for CCCCCCCCCCCCCCCCCCN [stearylamine] here?
**A.** The value was “no effect”.

**Q.** What about the “[%] inhibition of sphingomyelin biosynthetic activity” value ([1]; infected erythrocytes) of the same compound?
**A.** Its value is 0%.
